From patent US20170058314A1, “NOVEL METHODOLOGY FOR IDENTIFYING ANTI-PERSISTER ACTIVITY AND ANTIMICROBIAL SUSCEPTIBILITY FOR BORRELIA BURGDORFERI AND OTHER BACTERIA” (priority 2014, published 2017)
Converted amounts (≈) assume the structure as drawn. “And” between values parts separate entries of the source, which are not always exact repeats. Identical values can stand only once.

What was measured:
[1] = system: stationary phase B. burgdorferi persisters (strain B31); conditions: drug alone; cited from earlier work
[2] = system: round body form of B. burgdorferi; assay: SYBR Green I/PI assay on amoxicillin-induced round body form; conditions: for viability at 50 µM: Borreliella burgdorferi, 168 h, read-out: Residual viable cells (SYBR Green I/PI assay); for Ratios of green/red fluorescence, Primary screening / Ratios of green/red fluorescence, Rescreening (first column) / Ratios of green/red fluorescence, Rescreening (second column): round body form, 50 μM, 7 days
[3] = system: B. burgdorferi log and stationary phase cultures; assay: epi-fluorescence microscope counting after antibiotic exposure (persister frequency, planktonic forms); assay type: cell-based, Borrelia burgdorferi
Protocol: Specimens were examined on a Nikon Eclipse E800 microscope equipped with differential interference contrast (DIC) and epi-fluorescence illumination, and recorded with a Spot slider color camera. Cell proliferation assays were performed by direct counting using a bacterial counting chamber (Hausser Scientific Partnership) and DIC microscopy. SYBR Green I/PI assay was performed to assess the viability of B. burgdorferi. The ratio of live (green) and dead (red) B. burgdorferi was calculated by counting these cells using a bacterial counting chamber and epi-fluorescence microscopy. The three representative images of every sample were captured for quantitative analysis. Image Pro-Plus software was applied for measuring the biomass (fluorescence intensity) of different forms (spirochetes, round body, and microcolony) of B. burgdorferi as previously described (Shopov and Williams, 2000).
To qualitatively determine the effect of antibiotics, 10 μL of each compound from the pre-diluted plate or pre-diluted stock was added to stationary phase B. burgdorferi culture in the 96-well plate. The final volume per well was adjusted to 100 μL at a concentration of 10 μg/mL for each antibiotic. Plates were sealed and placed in a 33° C. incubator for 7 days. The SYBR Green I/PI viability assay was used to assess the live and dead cells after antibiotic exposure as described (Feng, Wang, Shi, et al., 2014). Briefly, 10 μL of SYBR Green I (10,000×stock, Invitrogen) was mixed with 30 μL propidium iodide (PI, 20 mM) into 1.0 mL of sterile dH2O. Then, 10 μL of staining mixture was added to each well and mixed thoroughly. The plates were incubated at room temperature in the dark for 15 minutes followed by plate reading at excitation wavelength at 485 nm and the fluorescence intensity at 535 nm (green emission) and 635 nm (red emission) in microplate reader (HTS 7000 plus Bio Assay Reader, PerkinElmer Inc., USA). With least-square fitting analysis, the regression equation and regression curve of the relationship between percentage of live bacteria and green/red fluorescence ratios was obtained. The regression equation was used to calculate the percentage of live cells in each well of the 96-well plate.
Therefore, the frequency of B. burgdorferi persisters in log phase and stationary phase cultures was assessed using the SYBR Green I/PI viability assay after exposure of the cultures to antimicrobials. E. coli culture was used as a control after exposure to antibiotics to validate the SYBR Green I/PI viability assay for persister frequency assessment.

[4] = system: K. pneumoniae (Isolate 7); assay: Rapid SYBR Green/PI antibiotic susceptibility test, 30 minutes; assay type: cell-based, Klebsiella pneumoniae; conditions: 25 μg/mL
[5] = system: stationary phase B. burgdorferi persisters (strain B31); assay: SYBR Green I/PI viability assay (plate reader), FDA-approved drug library screen
[6] = system: log phase and stationary phase B. burgdorferi culture; assay: Antibiotic exposure assay, SYBR Green I/PI (drugs alone and combinations); conditions: Borreliella burgdorferi, 168 h, read-out: Live Cell % (residual viable B. burgdorferi), ten-day-old stationary phase culture enriched with micro-colonies, 10 μg/mL each drug, 7 days
Summary of the method: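 Stationary-phase or round-body B. burgdorferi exposed 7 days at 33 °C to drugs alone or combined at 10 μg/mL each (single-compound screen: 50 μM final). Viability by SYBR Green I/PI, ex 485, em 535/635 nm; percent live from regression of green/red ratio, corrected by direct microscopy counting.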

[7] = system: stationary phase B. burgdorferi persisters (strain B31); assay: epifluorescence microscope counting after SYBR Green I/PI staining, FDA drug screen
[8] = system: E. coli strains (W3110, UTI89, CFT073, KTE181); assay: Rapid SYBR Green/PI antibiotic susceptibility test; assay type: cell-based, Escherichia coli; conditions: for percent killed, sensitive strain W3110: others 25 μg/mL
[9] = system: stationary phase B. burgdorferi persisters (strain B31); assay: NCI compound library rescreen, epifluorescence microscope counting; conditions: Borreliella burgdorferi, 168 h
S. aureus = conditions: Zhu et al., 2005; cited from earlier work
[10] = system: B. burgdorferi (growing, strain B31); assay: MIC determination, standard microdilution method; assay type: cell-based, Borrelia burgdorferi; conditions: Borreliella burgdorferi; growing B. burgdorferi; read-out: MIC
[11] = system: stationary phase B. burgdorferi persisters (strain B31); assay: NCI compound library screen, SYBR Green I/PI assay (plate reader); conditions: Borreliella burgdorferi, 168 h, read-out: Residual viable cells (SYBR Green I/PI assay)
S. aureus USA300 = assay: MIC by broth microdilution (OD600) and SYBR Green/PI; assay type: cell-based; conditions: Staphylococcus aureus; S. aureus USA300, overnight incubation
[12] = system: S. aureus strains (Newman, USA300, CA-409, CA-127, NY-315); assay: Rapid SYBR Green/PI antibiotic susceptibility test; assay type: cell-based, Staphylococcus aureus; conditions: for cut-off (averaged proportion of killed cells) for resistant strains / cut-off (averaged proportion of killed cells) for susceptible strains: 100 μg/mL, 1.5 hours
E. coli UTI89 persisters = assay: Persister assay (CFU enumeration and SYBR Green/PI); assay type: cell-based, Escherichia coli; conditions: ampicillin 100, ofloxacin 5, polymycin B 10, gentamicin 20 μg/mL
Protocol: Stationary phase cultures of E. coli UTI89 were treated with ofloxacin (5 μg/mL) for 4 hours to enrich for persisters, followed by drug exposure with different antibiotics including ampicillin (100 μg/mL), ofloxacin (5 μg/mL), polymycin B (10 μg/mL) and gentamicin (20 μg/mL). The bacterial viability was determined by CFU enumeration and SYBR Green/PI assay as described above.

E. coli W3110 = assay: MIC by broth microdilution (OD600) and SYBR Green/PI; assay type: cell-based; conditions: Escherichia coli; E. coli W3110, overnight incubation
Text: The Kirby-Bauer disk diffusion assay was used to determine the susceptibility of the various strains to antibiotics. Instructions and also interpretation of zone diameters were made using the established standards as listed in the Clinical and Laboratory Standards Institute (CLSI). Briefly, bacterial cultures were adjusted to a 0.5 McFarland turbidity standard and spread onto Mueller-Hinton agar. Paper Disks were impregnated onto the agar and the antibiotics at concentrations recommended by CLSI were pipetted onto each blank disk and allowed to air dry for 10 minutes. The plates were incubated at 37° C. overnight before the zone of inhibition was measured in millimeters. […]
The staining dye for Staphylococcus aureus, Escherichia coli, Acinetobacter baumanii, and Mycobacterium tuberculosis were made by mixing SYBR Green I to propidium iodide (1:3) in 100 μl distilled H2O. […] The green and red fluorescence intensity was detected using a Synergy H1 microplate reader by Bio Tek Instruments (VT, USA) at excitation wavelength of 485 nm, 538 nm (green emission), and 612 nm (red emission). The percentage of live cells in each sample was determined by a regression equation generated by a standard curve. […] The staining mixture was added to each sample and the green/red fluorescent ratios were measured as described above. […]

M. tuberculosis H37Ra = assay type: cell-based, Mycobacterium tuberculosis; conditions: pH 5.9
B. burgdorferi = conditions: after 72 h; Kraiczy et al., 2001; cited from earlier work
[13] = 50 μM, 7 days, stationary phase
[14] = 30 minutes, ampicillin 100 μg/mL
[15] = ampicillin, streptomycin 100 μg/mL, trimethoprim 5 μg/mL

Cc1ccc(C(C)C)c(O)c1 [Thymol]
residual live cell percentage, stationary phase, previous drug screen [1]: 82%
viability at 50 µM [2]: 34%
Ratios of green/red fluorescence, Primary screening [2]: 6.15
Ratios of green/red fluorescence, Rescreening (first column) [2]: 6.36
Ratios of green/red fluorescence, Rescreening (second column) [2]: 6.36

CO/N=C(\C(=O)N[C@@H]1C(=O)N2C(C(=O)O)=C(CSc3nc(=O)c(=O)[nH]n3C)CS[C@H]12)c1csc(N)n1 [Ceftriaxone]
persister frequency (percentage of live cells after antibiotic treatment, in brackets) ([3]; 3-day log phase culture): (5.8%)
persister frequency (in brackets) ([3]; 7-day stationary phase culture): (16%)
persister frequency (in brackets) ([3]; 10-day stationary phase culture): (~25%)
killing of resistant K. pneumoniae strain [4]: not killed at all
Ratio of Green/Red fluorescence, Primary screening [5, 13]: 6.74
Ratio of Green/Red fluorescence, Rescreening (first column) [5, 13]: 6.89
Ratio of Green/Red fluorescence, Rescreening (second column) [5, 13]: 6.78
viability at 50 µM ([5]; Borreliella burgdorferi, 168 h, read-out: Residual viable cells (regression equation, SYBR Green I/PI assay)): 44%
viability at 10 µg/mL [6]: 68%
viability at 50 µM ([7]; Borreliella burgdorferi, 168 h, read-out: Residual viable cells (epifluorescence microscope counting)): 50%
viability at 50 µM [2]: 36%
Ratios of green/red fluorescence, Primary screening [2]: 6.37
Ratios of green/red fluorescence, Rescreening (first column) [2]: 6.29
Ratios of green/red fluorescence, Rescreening (second column) [2]: 6.39
percent killed, sensitive strain W3110 [8, 14]: 37%

CO/N=C(\C(=O)N[C@@H]1C(=O)N2C(C(=O)O)=C(COC(C)=O)CS[C@H]12)c1csc(N)n1 [cefotaxime]
killing of resistant K. pneumoniae strain [4]: not killed at all
percent killed, sensitive strain W3110 [8, 14]: 24%

COc1cccc2c1C(=O)c1c(O)c3c(c(O)c1C2=O)C[C@@](O)(C(C)=O)C[C@@H]3OC1CC(N)C(O)C(C)O1.Cl (some centres unmarked) [NSC82151, Daunorubicin hydrochloride]
viability at 50 µM ([9]; read-out: Activity against persisters (residual viable cell percentage)): 10%
viability at 50 µM ([9]; read-out: Residual viable cells (epifluorescence microscope counting)): 10%
MIC against S. aureus (S. aureus): 8 to 32 µg/mL
MIC [10]: ≤ 0.35 µg/mL
viability at 50 µM [11]: 0%

COc1cccc2c1C(=O)c1c(O)c3c(c(O)c1C2=O)C[C@@](O)(C(=O)CO)C[C@@H]3O[C@H]1C[C@H](N)[C@H](O)[C@H](C)O1 [doxorubicin]
activity against stationary phase B. burgdorferi (words; SYBR Green I/PI assay) ([5]; FDA drug screen): very high activity
bactericidal activity by microscopic counting ([7]; FDA drug screen): no bactericidal activity
MIC against S. aureus (S. aureus): 0.12 to 0.5 µg/mL

O=C(N[C@H](CO)[C@H](O)c1ccc([N+](=O)[O-])cc1)C(Cl)Cl [chloramphenicol]
MIC (S. aureus USA300): 4 µg/mL (≈ 12.4 µM)
cut-off (averaged proportion of killed cells) for resistant strains [12]: −0.1
cut-off (averaged proportion of killed cells) for susceptible strains [12]: −0.5

CC1(C)S[C@@H]2[C@H](NC(=O)[C@H](N)c3ccccc3)C(=O)N2[C@H]1C(=O)O [ampicillin]
level of persisters over 7 days (words; CFU and SYBR Green/PI) (E. coli UTI89 persisters): stayed constant
MIC (E. coli W3110): 8 µg/mL
percent killed, sensitive strain UTI89 [8, 14]: 23%
percent killed, sensitive strain W3110 [8, 14]: 38%
percent killed, resistant strain KTE181 ([8]; 30 minutes, ampicillin 100, trimethoprim 25, streptomycin 25 μg/mL): 1%
cut-off (averaged proportion of killed cells) for resistant strains [8, 15]: -0.1
cut-off (averaged proportion of killed cells) for susceptible strains [8, 15]: −0.5

NC(=O)c1cnccn1 [PZA, pyrazinamide]
susceptibility of parent strain H37Ra (M. tuberculosis H37Ra): susceptible

O=C(O)c1cn(C2CC2)c2cc(N3CCNCC3)c(F)cc2c1=O [Ciprofloxacin]
cut-off (averaged proportion of killed cells) for resistant strains [12]: −0.1
cut-off (averaged proportion of killed cells) for susceptible strains [12]: −0.3
percent killed, resistant strain CA-409 ([12]; 30 minutes, kanamycin 25, ciprofloxacin 50, gentamicin 400 μg/mL): 21%
percent killed, sensitive Newman strain ([12]; 30 minutes, kanamycin 25, erythromycin 400, ciprofloxacin 50, gentamicin 400 μg/mL): 58%
MBC (B. burgdorferi): 16 μg/mL and 41.5 μM
MIC [10]: 0.8 to 1.6 µg/mL (≈ 2.41 to 4.83 µM)
